According to the NIST ThermoML archive (doi:10.1021/je100832h):

Conditions: Liquid; for mass density: 101.32 kPa, Vibrating tube method

CCCCC [pentane]
Conditions | mass density [kg/m3] | vapor or sublimation pressure [kPa]
291.15 K | 628.22 | –
298.15 K | 621.35 | –
309.3 K | – | 101.32

CCCCCCC [heptane]
Conditions | mass density [kg/m3]
291.15 K | 685.28
298.15 K | 679.48
318.15 K | 662.06
328.15 K | 653.6

Ebulliometric method (Recirculating still)
Conditions | vapor or sublimation pressure [kPa]
305.26 K | 8.32
310.22 K | 10.55
314.93 K | 13.09
316.5 K | 14.07
319.71 K | 16.19
323.62 K | 19.1
326.44 K | 21.45
329.04 K | 23.79
331.48 K | 26.14
333.21 K | 27.97
335.5 K | 30.51
337.48 K | 32.84
339.56 K | 35.53
341.35 K | 37.87
342.96 K | 40.12
344.47 K | 42.35
346.04 K | 44.75
347.28 K | 46.71
348.72 K | 49.09
350.12 K | 51.49
351.21 K | 53.41
352.49 K | 55.76
353.62 K | 57.88
354.79 K | 60.18
356.25 K | 63.11
357.84 K | 66.42
358.68 K | 68.27
359.98 K | 71.15
361.33 K | 74.25
362.3 K | 76.55
363.32 K | 79
364.24 K | 81.28
365.32 K | 84.05
366.2 K | 86.3
366.87 K | 88.1
367.97 K | 91.09
368.83 K | 93.46
369.84 K | 96.33
370.85 K | 98.98
371.11 K | 100
371.35 K | 100.68
371.56 K | 101.32
372.42 K | 103.92
373.25 K | 106.48
373.98 K | 108.71
374.93 K | 111.77
375.41 K | 113.35
376.29 K | 116.21
377.17 K | 119.14
377.51 K | 120.32
378.49 K | 123.7
379.37 K | 126.8
380.26 K | 130
380.83 K | 132.04
392.89 K | 182.39
393.79 K | 186.6
394.43 K | 189.67
395.1 K | 192.97
395.73 K | 196.04
396.09 K | 197.85
396.5 K | 199.97

CCCCCCCC [octane]
Conditions | mass density [kg/m3]
291.15 K | 704.13
298.15 K | 698.6
318.15 K | 682.16
328.15 K | 674.15

Ebulliometric method (Recirculating still)
Conditions | vapor or sublimation pressure [kPa]
350.64 K | 21.09
353.05 K | 23.14
355.76 K | 25.56
356.97 K | 26.7
358.82 K | 28.55
361.59 K | 31.58
363.86 K | 34.16
365.82 K | 36.53
367.65 K | 38.88
369.09 K | 40.82
370.77 K | 43.19
372.39 K | 45.57
374.01 K | 48.04
375.61 K | 50.59
377 K | 52.9
378.25 K | 55.02
380.03 K | 58.2
381.34 K | 60.63
382.42 K | 62.68
383.64 K | 65.07
384.76 K | 67.34
386.29 K | 70.52
387.45 K | 73.02
388.55 K | 75.43
389.65 K | 77.94
390.56 K | 80.05
391.6 K | 82.51
392.6 K | 84.94
393.47 K | 87.09
394.37 K | 89.39
395.14 K | 91.38
396.04 K | 93.64
396.95 K | 96.14
397.9 K | 98.73
398.19 K | 99.59
398.59 K | 100.68
398.83 K | 101.32
399.61 K | 103.61
400.53 K | 106.23
401.23 K | 108.3
402.03 K | 110.71
402.81 K | 113.09
403.32 K | 114.65
403.81 K | 116.17
404.1 K | 117.1
404.79 K | 119.25
405.51 K | 121.6
406.27 K | 124.1
407.03 K | 126.61
407.89 K | 129.5
408.75 K | 132.46
409.62 K | 135.53
410.15 K | 137.42
410.83 K | 139.87
422.1 K | 185.56
422.64 K | 188.02
423.26 K | 190.85
423.76 K | 193.15
424.15 K | 195.02
424.76 K | 197.87
425.2 K | 199.97

CCCCCC [hexane]
Conditions | mass density [kg/m3]
291.15 K | 661.17
298.15 K | 654.9
318.15 K | 636.5
328.15 K | 627

Ebulliometric method (Recirculating still)
Conditions | vapor or sublimation pressure [kPa]
292.98 K | 15.88
296.27 K | 18.39
298.95 K | 20.69
302.2 K | 23.81
304.49 K | 26.19
306.76 K | 28.77
308.28 K | 30.68
310.14 K | 32.97
311.96 K | 35.53
313.7 K | 37.95
315.07 K | 40.1
316.51 K | 42.3
317.91 K | 44.59
319.58 K | 47.35
320.83 K | 49.63
322.02 K | 51.87
323.45 K | 54.51
324.35 K | 56.42
325.74 K | 59.15
327.09 K | 62.05
327.99 K | 64.02
329.13 K | 66.61
330.14 K | 68.93
330.93 K | 70.86
331.87 K | 73.11
332.87 K | 75.62
333.77 K | 78.04
334.61 K | 80.11
335.65 K | 82.94
336.53 K | 85.4
337.38 K | 87.73
338.26 K | 90.28
339.25 K | 93.18
340.1 K | 95.79
340.92 K | 98.28
341.17 K | 99.08
341.6 K | 100.39
341.88 K | 101.32
342.34 K | 102.83
343.01 K | 104.95
343.62 K | 106.98
344.52 K | 110.01
344.69 K | 110.65
345.43 K | 113.16
346.05 K | 115.31
346.66 K | 117.46
347.36 K | 119.99
348.05 K | 122.52
348.44 K | 124.01
349.04 K | 126.23
349.61 K | 128.44
349.82 K | 129.32
350.34 K | 131.23
350.82 K | 133.07
351.42 K | 135.49
351.93 K | 137.54
352.53 K | 139.99
352.83 K | 141.31
353.22 K | 142.8
353.87 K | 145.75
354.23 K | 147.04
354.71 K | 149.34
355.4 K | 152.14
355.66 K | 153.31
356.04 K | 155.14
356.52 K | 157.29
357.01 K | 159.38
357.38 K | 161.05
357.8 K | 162.94
358.47 K | 166.02
358.88 K | 167.98
359.18 K | 169.31
359.69 K | 171.84
359.9 K | 172.89
360.51 K | 175.78
360.8 K | 177.31
361.09 K | 178.67
361.54 K | 180.95
361.86 K | 182.61
362.43 K | 185.32
362.68 K | 186.64
362.98 K | 188.2
363.52 K | 191.05
363.95 K | 193.35
